The results in this text go back to patent US10568950B1, “Peptides, combination of peptides and scaffolds for use in immunotherapeutic treatment of various cancers” (Immatics Biotechnologies GmbH, priority 2015, dated 2020).

In assay [1] the test system is CD8+ T cells of healthy HLA-A*24+ donors. As to the kind of experiment: In vitro immunogenicity: priming of CD8+ T cells with aAPCs loaded with HLA-A*24/peptide complexes and anti-CD28, multimer staining. It is filed as cell-based, human. As to conditions: in vitro immunogenicity, HLA-A*24 peptides of Table 12B. As for the experimental part: CD8+ T cells were primed using artificial APCs coated with anti-CD28 mAb and HLA-A*24 in complex with SEQ ID NO: 99 peptide (FIG. 5A, left panel), SEQ ID NO: 119 peptide (FIG. 5B, left panel), SEQ ID NO: 142 peptide (FIG. 5C, left panel) and SEQ ID NO: 174 peptide (FIG. 5D, left panel), respectively. After three cycles of stimulation, the detection of peptide-reactive cells was performed by 2D multimer staining with A*24/SEQ ID NO: 99 (A), A*24/SEQ ID NO: 119 (B), A*24/SEQ ID NO: 142 (C) or A*24/SEQ ID NO: 174 (D). Right panels (FIGS. 5A, 5B, 5C and 5D) show control staining of cells stimulated with irrelevant A*24/peptide complexes. Viable singlet cells were gated for CD8+ lymphocytes. Boolean gates helped excluding false-positive events detected with multimers specific for different peptides. Frequencies of specific multimer+ cells among CD8+ lymphocytes are indicated.
In order to obtain information regarding the immunogenicity of the TUMAPs of the present invention, the inventors performed investigations using an in vitro T-cell priming assay based on repeated stimulations of CD8+ T cells with artificial antigen presenting cells (aAPCs) loaded with peptide/MHC complexes and anti-CD28 antibody.
PBMCs and isolated CD8+ lymphocytes were incubated in T-cell medium (TCM) until use consisting of RPMI-Glutamax (Invitrogen, Karlsruhe, Germany) supplemented with 10% heat inactivated human AB serum (PAN-Biotech, Aidenbach, Germany), 100 U/ml Penicillin/100 μg/ml Streptomycin (Cambrex, Cologne, Germany), 1 mM sodium pyruvate (CC Pro, Oberdorla, Germany), 20 μg/ml Gentamycin (Cambrex). 2.5 ng/ml IL-7 (PromoCell, Heidelberg, Germany) and 10 U/ml IL-2 (Novartis Pharma, Nurnberg, Germany) were also added to the TCM at this step.
Generation of pMHC/anti-CD28 coated beads, T-cell stimulations and readout was performed in a highly defined in vitro system using four different pMHC molecules per stimulation condition and 8 different pMHC molecules per readout condition.
The purified co-stimulatory mouse IgG2a anti human CD28 Ab 9.3 (Jung et al., 1987) was chemically biotinylated using Sulfo-N-hydroxysuccinimidobiotin as recommended by the manufacturer (Perbio, Bonn, Germany). Beads used were 5.6 μm diameter streptavidin coated polystyrene particles (Bangs Laboratories, Illinois, USA).
800.000 beads/200 μl were coated in 96-well plates in the presence of 4×12.5 ng different biotin-pMHC, washed and 600 ng biotin anti-CD28 were added subsequently in a volume of 200 μl. Stimulations were initiated in 96-well plates by co-incubating […] CD8+ T cells with 2×10^5 washed coated beads in 200 μl TCM supplemented with 5 ng/ml IL-12 (PromoCell) for 3 days at 37° C. Half of the medium was then exchanged by fresh TCM supplemented with 80 U/ml IL-2 and incubating was continued for 4 days at 37° C. This stimulation cycle was performed for a total of three times. For the pMHC multimer readout using 8 different pMHC molecules per condition, a two-dimensional combinatorial coding approach was used as previously described (Andersen et al., 2012) with minor modifications encompassing coupling to 5 different fluorochromes. Finally, multimeric analyses were performed by staining the cells with Live/dead near IR dye (Invitrogen, Karlsruhe, Germany), CD8-FITC antibody clone SKI (BD, Heidelberg, Germany) and fluorescent pMHC multimers. For analysis, a BD LSRII SORP cytometer equipped with appropriate lasers and filters was used. Peptide specific cells were calculated as percentage of total CD8+ cells. Evaluation of multimeric analysis was done using the FlowJo software (Tree Star, Oreg., USA). In vitro priming of specific multimer+ CD8+ lymphocytes was detected by comparing to negative control stimulations.

For the next assay, the system named is HLA-A*24. The assay is described as follows: MHC binding assay: UV-ligand exchange, beta2m ELISA (peptide exchange yield). As to conditions: binding to HLA-A*24, β2m ELISA. More on the design: species or system human. The source says: Candidate peptides for T cell based therapies according to the present invention were further tested for their MHC binding capacity (affinity). The individual peptide-MHC complexes were produced by UV-ligand exchange, where a UV-sensitive peptide is cleaved upon UV-irradiation, and exchanged with the peptide of interest as analyzed. Only peptide candidates that can effectively bind and stabilize the peptide-receptive MHC molecules prevent dissociation of the MHC complexes. To determine the yield of the exchange reaction, an ELISA was performed based on the detection of the light chain (β2m) of stabilized MHC complexes. The assay was performed as generally described in Rodenko et al. (Rodenko et al., 2006).
96 well MAXISorp plates (NUNC) were coated over night with 2 ug/ml streptavidin in PBS at room temperature, washed 4× and blocked for 1 h at 37° C. in 2% BSA containing blocking buffer. […] Peptide-MHC monomers of the UV-exchange reaction were diluted 100 fold in blocking buffer. Samples were incubated for 1 h at 37° C., washed four times, incubated with 2 ug/ml HRP conjugated anti-βm for 1 h at 37° C., washed again and detected with TMB solution that is stopped with […]. Absorption was measured at 450 nm. Candidate peptides that show a high exchange yield (preferably higher than 50%, most preferred higher than 75%) are generally preferred for a generation and production of antibodies or fragments thereof, and/or T cell receptors or fragments thereof, as they show sufficient avidity to the MHC molecules and prevent dissociation of the MHC complexes.
On the technique in general: An ELISA detects its analyte on a solid surface through an enzyme-linked reagent.

Consider “365 (VFIDHPVHL; listed as Homo sapiens) [compound 365]”, for which the “Wells positive [%]” value in assay [1] is “+ (<20% = +)”. In addition, the “Peptide exchange (MHC class I binding score, peptide exchange yield)” value (“Peptide exchange” below) with HLA-A*24 was “++++ (>= 75% = ++++)”.
Take “170 (QYPFHVPLL; listed as Homo sapiens) [compound 170]”: the “Wells positive [%]” value in assay [1] is “+++ (50%-69% = +++)”. For the same substance, the “Peptide exchange” value with HLA-A*24 is “++++ (>= 75% = ++++)”.
In the same order, the values of “114 (QYLDGTWSL; listed as Homo sapiens) [compound 114]” are “+++ (50%-69% = +++)” and “++++ (>= 75% = ++++)”.
On to “99 (QYILAVPVL; listed as Homo sapiens) [compound 99]”, for which the “Wells positive [%]” value in assay [1] is “+++ (50%-69% = +++)”. In the assay with HLA-A*24, the “Peptide exchange” value was “++++ (>= 75% = ++++)”.
With “166 (FYTLPFHLI; listed as Homo sapiens) [compound 166]”, the “Wells positive [%]” value in assay [1] is recorded as “++++ (>= 70 % = ++++)”. Moreover, the “Peptide exchange” value in the assay on HLA-A*24 is “++++ (>= 75% = ++++)”.
For “172 (VFIFKGNEF; listed as Homo sapiens) [compound 172]”, in that order: “+ (<20% = +)” and “++++ (>= 75% = ++++)”.
For the substance “186 (VFTTSSNIF; listed as Homo sapiens) [compound 186]”, in assay [1], the “Wells positive [%]” value is on record as “+ (<20% = +)”. Further, in the assay on HLA-A*24, the “Peptide exchange” value is recorded as “++++ (>= 75% = ++++)”.
In the same order, the values of “109 (LFITGGQFF; listed as Homo sapiens) [compound 109]” are “++ (20%-49% = ++)” and “++++ (>= 75% = ++++)”.
In the case of “356 (NYMPGQLTI; listed as Homo sapiens) [compound 356]”, in assay [1], the “Wells positive [%]” value is given as “+ (<20% = +)”. For the same substance, the “Peptide exchange” value with HLA-A*24 is “++++ (>= 75% = ++++)”.
For the substance “96 (YYTQYSQTI; listed as Homo sapiens) [compound 96]”, the “Wells positive [%]” value in assay [1] is “+ (<20% = +)”. Further, in the assay on HLA-A*24, the “Peptide exchange” value was “++++ (>= 75% = ++++)”.
In the same order, the values of “380 (VYTGIDHHW; listed as Homo sapiens) [compound 380]” are “+ (<20% = +)” and “++++ (>= 75% = ++++)”.
In the case of “359 (NYGVLHVTF; listed as Homo sapiens) [compound 359]”, the “Wells positive [%]” value in assay [1] is recorded as “+ (<20% = +)”. Further, the “Peptide exchange” value with HLA-A*24 is listed as “++++ (>= 75% = ++++)”.
For “132 (RYPALFPVL; listed as Homo sapiens) [compound 132]”, in that order: “+ (<20% = +)” and “++++ (>= 75% = ++++)”.
As for “163 (RYLTISNLQF; listed as Homo sapiens) [compound 163]”, the “Wells positive [%]” value in assay [1] was “+ (<20% = +)”. For the same substance, in the assay with HLA-A*24, the “Peptide exchange” value is listed as “++++ (>= 75% = ++++)”.
In the same order, the values of “155 (IYKWITDNF; listed as Homo sapiens) [compound 155]” are “++ (20%-49% = ++)” and “++++ (>= 75% = ++++)”.
In the same order, the values of “104 (SYLTWHQQI; listed as Homo sapiens) [compound 104]” are “+ (<20% = +)” and “++++ (>= 75% = ++++)”.
For “120 (GYIEHFSLW; listed as Homo sapiens) [compound 120]”, in that order: “++ (20%-49% = ++)” and “++++ (>= 75% = ++++)”.
As to “137 (EYLHNCSYF; listed as Homo sapiens) [compound 137]”, the “Wells positive [%]” value in assay [1] is on record as “+ (<20% = +)”. In addition, the “Peptide exchange” value in the assay with HLA-A*24 is recorded as “++++ (>= 75% = ++++)”.
In the same order, the values of “182 (AYAQLGYLLF; listed as Homo sapiens) [compound 182]” are “+++ (50%-69% = +++)” and “++++ (>= 75% = ++++)”.
Take “144 (VFASLPGFLF; listed as Homo sapiens) [compound 144]”: in assay [1], the “Wells positive [%]” value is on record as “++ (20%-49% = ++)”. Besides, in the assay on HLA-A*24, the “Peptide exchange” value is reported as “++++ (>= 75% = ++++)”.
In the same order, the values of “156 (YYMELTKLLL; listed as Homo sapiens) [compound 156]” are “+ (<20% = +)” and “++++ (>= 75% = ++++)”.
As to “140 (RYLINSYDF; listed as Homo sapiens) [compound 140]”, the “Wells positive [%]” value in assay [1] is “+++ (50%-69% = +++)”. Further, the “Peptide exchange” value with HLA-A*24 is listed as “++++ (>= 75% = ++++)”.
